Patent publication US12178907B2, “Binary lipid bilayer-containing vesicles comprising embedded cytotoxic agents and methods of making and using the same” (The USA, as represented by the Secretary, Department of …, priority 2018, dated 2024)

Columns and labels:
[1] = 661 nm laser treatment (HPPH photodamage); type: physicochemical; settings: five minutes
Description: 661 nm Laser Treatment of Vesicle20-HPPH: Vesicle20-HPPH (containing 50-100 μg lipid & 2.5-5 μg HPPH) were placed in a microcentrifuge tube and irradiated horizontally in a box fitted with a diode laser cube at room temperature. Irradiation was done for five minutes using the 661 nm laser (Coherent Cube Part Number 1130061) at a power output of 90 mW (125 mW/cm^2, as measured by the Thorlabs PM200 Energy Meter with the S121C Photodiode Power Sensor). Free HPPH dispersed in Tween 80 (Tween 80-HPPH) (4) and DPPC:DC8,9PC:DSPEG2000 vesicles (Table 1B) were used as controls to compare the extents of photodamage.
The efficiency of photoactivation by HPPH upon laser exposure depends on its environment and aggregation state. Laser treatment of HPPH results in photodamage and serves as an indication of its activity. Therefore, the photodamage of vesicle-formulated HPPH was compared with Tween 80-HPPH and a formulation comprising DPPC and a lower concentration of DSPE-PEG2000 (see Table 2). The extent of photodamage was tested using Vesicle10-HPPH containing 1:0.05 Lipid:HPPH ratios (Table 2) upon treatment with 661 nm laser for five minutes.

[2] = cited from earlier work
[3] = Low-speed centrifugation to sediment unincorporated HPPH; type: physicochemical; settings: 6,000 rpm, 20-30 minutes, HBS
Description: HPPH-loaded vesicles were placed in microcentrifuge tubes and centrifugations were carried out at 6,000 rpm (˜3000 RCF) for 30 minutes at 20-25° C. using a fixed-angle rotor centrifuge. Supernatants containing the vesicle-incorporated HPPH were collected, and any unincorporated HPPH, which aggregates in aqueous environment, was sedimented in the pellet fraction. A sample of an equivalent amount of free HPPH was suspended in HBS (without the lipids), and mixed by vortexing. The free HPPH aggregated in the buffer, which could be sedimented in the pelleted fraction upon centrifugation at low-speed as described above. This protocol presented a simple procedure to remove unincorporated HPPH from the vesicle-associated HPPH.
Free, unincorporated HPPH aggregates in aqueous buffer due to its insolubility, and can be pelleted upon sedimentation by low-speed centrifugation. Size exclusion chromatography (PD10 columns, GE Scientific) was used to separate unincorporated HPPH from the vesicles; however, in these embodiments, it was observed that sonication of HPPH dispersion in the HBS (in the absence of lipids) generated smaller HPPH aggregates that coeluted (in part) with vesicle-associated HPPH on the PD10 column. […] The HPPH suspended in HBS (in the absence of lipids) remained in suspension prior to centrifugation as determined by absorbance measurements. […]

HPPH sedimented into the pelleted fraction [3]: nearly complete sedimentation
SMILES: CCCCCCOC(C)c1c(C)c2cc3nc(c4c5[nH]c(cc6nc(cc1[nH]2)C(C)=C6CC)c(C)c5C(=O)C4)[C@@H](CCC(=O)O)[C@@H]3C (stereo partly shown) [HPPH, 2-[1-hexyloxyethyl]-2-devinyl pyropheophorbide-a]
extent of photodamage (HPPH fluorescence remaining after laser) [1]: did not result in a decrease in fluorescence | molar extinction ε ([2]; at 665 nm): 47,500 M^−1 cm^−1 | log P ([2]; physiological pH): 5.6
